Measured values: ChEMBL document CHEMBL3431459, “Roche carnitine palmitoyltransferase modulator screening data (supplementary data associated with the publication CHEMBL2216752)”
Converted amounts (≈) assume the structure as drawn.

Legend:
[1] = SUPPLEMENTARY: PAMPA permeability assay; format: physicochemical; settings: read-out: Permeability
[2] = SUPPLEMENTARY: Lyophilisation Solubility Assay (LYSA); format: physicochemical; settings: read-out: Kinetic_solubility
[3] = molecular target: T1, Carnitine O-palmitoyltransferase 2, mitochondrial (Homo sapiens, UniProt P23786); test: (§1) SUPPLEMENTARY: Inhibition of Carnitine palmitoyltransferase 2
T1 sequence (P23786 whole entry): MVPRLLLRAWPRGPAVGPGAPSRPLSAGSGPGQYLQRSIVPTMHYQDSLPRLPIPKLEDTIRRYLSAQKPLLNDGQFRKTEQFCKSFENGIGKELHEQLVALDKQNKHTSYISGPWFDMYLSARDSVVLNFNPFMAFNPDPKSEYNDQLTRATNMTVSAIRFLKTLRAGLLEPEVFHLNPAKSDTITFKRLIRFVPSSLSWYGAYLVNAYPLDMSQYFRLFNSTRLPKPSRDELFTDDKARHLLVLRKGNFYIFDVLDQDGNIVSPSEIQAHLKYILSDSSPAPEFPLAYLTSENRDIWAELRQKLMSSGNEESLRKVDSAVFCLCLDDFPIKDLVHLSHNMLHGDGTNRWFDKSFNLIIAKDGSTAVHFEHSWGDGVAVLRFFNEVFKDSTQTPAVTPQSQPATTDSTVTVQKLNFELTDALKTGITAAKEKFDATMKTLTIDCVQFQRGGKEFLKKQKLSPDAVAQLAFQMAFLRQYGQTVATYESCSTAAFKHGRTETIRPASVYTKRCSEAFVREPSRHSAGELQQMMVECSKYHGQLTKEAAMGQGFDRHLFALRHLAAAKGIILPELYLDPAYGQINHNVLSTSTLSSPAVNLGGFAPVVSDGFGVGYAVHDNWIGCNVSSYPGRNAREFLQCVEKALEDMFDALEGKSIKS

[4] = molecular target: T2, Carnitine O-palmitoyltransferase 2, mitochondrial (Rattus norvegicus, UniProt P18886); test: as §1
T2 sequence (P18886 whole entry): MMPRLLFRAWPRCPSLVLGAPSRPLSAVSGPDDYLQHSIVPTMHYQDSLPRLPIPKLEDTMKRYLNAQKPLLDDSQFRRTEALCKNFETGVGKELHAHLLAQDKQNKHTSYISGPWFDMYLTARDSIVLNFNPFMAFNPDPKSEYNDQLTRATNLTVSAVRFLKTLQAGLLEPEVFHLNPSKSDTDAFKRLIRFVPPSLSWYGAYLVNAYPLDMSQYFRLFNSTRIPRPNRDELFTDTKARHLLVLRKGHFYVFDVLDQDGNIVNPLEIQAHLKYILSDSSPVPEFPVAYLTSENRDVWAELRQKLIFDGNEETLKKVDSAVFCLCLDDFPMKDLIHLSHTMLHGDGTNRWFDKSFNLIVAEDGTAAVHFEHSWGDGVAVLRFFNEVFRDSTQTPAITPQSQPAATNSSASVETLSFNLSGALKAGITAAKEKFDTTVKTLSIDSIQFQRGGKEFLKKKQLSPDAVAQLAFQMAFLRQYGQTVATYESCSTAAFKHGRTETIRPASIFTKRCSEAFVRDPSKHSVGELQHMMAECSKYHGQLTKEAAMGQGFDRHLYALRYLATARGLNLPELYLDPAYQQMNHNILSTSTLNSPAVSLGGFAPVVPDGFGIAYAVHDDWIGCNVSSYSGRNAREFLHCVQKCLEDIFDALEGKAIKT

[5] = molecular target: T3, Carnitine O-palmitoyltransferase 1, muscle isoform (Homo sapiens, UniProt Q92523); test: SUPPLEMENTARY: Inhibition of Carnitine palmitoyltransferase 1, muscle isoform; parameters: species or system Muscle tissue
T3 sequence (Q92523 whole entry): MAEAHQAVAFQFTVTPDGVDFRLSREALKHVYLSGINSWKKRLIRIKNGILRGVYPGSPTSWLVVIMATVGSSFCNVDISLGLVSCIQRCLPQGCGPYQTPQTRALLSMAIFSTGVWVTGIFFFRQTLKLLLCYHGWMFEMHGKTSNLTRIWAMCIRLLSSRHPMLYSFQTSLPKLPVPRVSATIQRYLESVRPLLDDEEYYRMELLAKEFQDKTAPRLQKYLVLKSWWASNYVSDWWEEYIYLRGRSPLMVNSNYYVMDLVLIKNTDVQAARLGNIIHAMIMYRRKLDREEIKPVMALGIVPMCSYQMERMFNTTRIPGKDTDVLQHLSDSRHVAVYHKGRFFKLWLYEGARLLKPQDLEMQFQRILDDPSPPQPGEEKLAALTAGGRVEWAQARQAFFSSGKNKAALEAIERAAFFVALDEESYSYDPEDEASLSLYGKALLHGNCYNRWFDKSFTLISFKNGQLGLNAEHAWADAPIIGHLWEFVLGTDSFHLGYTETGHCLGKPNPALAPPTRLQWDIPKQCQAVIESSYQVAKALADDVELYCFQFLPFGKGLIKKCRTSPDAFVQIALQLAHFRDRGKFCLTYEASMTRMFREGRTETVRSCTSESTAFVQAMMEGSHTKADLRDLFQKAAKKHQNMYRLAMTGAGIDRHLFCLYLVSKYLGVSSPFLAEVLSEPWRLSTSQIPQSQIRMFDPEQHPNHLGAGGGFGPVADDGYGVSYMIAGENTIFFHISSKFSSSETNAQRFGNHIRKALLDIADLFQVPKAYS

[6] = molecular target: T4, Carnitine O-palmitoyltransferase 1, liver isoform (Rattus norvegicus, UniProt P32198); test: (§2) SUPPLEMENTARY: Inhibition of Carnitine palmitoyltransferase 1, liver isoform
T4 sequence (P32198 whole entry): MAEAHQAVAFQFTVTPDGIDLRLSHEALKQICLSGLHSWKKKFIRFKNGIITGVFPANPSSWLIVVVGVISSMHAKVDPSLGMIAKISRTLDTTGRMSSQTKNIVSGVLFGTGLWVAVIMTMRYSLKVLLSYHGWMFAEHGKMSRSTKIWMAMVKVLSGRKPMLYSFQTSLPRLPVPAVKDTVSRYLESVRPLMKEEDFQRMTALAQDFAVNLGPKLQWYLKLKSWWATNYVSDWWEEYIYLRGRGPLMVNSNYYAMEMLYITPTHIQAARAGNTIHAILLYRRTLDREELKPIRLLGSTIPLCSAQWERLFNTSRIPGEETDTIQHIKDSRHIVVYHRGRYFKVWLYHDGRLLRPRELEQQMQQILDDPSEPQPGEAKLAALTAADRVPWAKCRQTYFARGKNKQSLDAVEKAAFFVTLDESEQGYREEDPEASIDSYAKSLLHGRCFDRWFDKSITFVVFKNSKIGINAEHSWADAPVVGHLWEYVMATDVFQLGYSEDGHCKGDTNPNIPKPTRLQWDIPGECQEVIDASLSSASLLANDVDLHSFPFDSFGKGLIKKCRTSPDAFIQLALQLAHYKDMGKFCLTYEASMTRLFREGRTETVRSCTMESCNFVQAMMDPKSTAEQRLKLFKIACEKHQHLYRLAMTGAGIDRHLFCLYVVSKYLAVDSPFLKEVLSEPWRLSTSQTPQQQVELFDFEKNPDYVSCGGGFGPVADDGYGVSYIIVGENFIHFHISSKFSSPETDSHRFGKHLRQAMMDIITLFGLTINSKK

[7] = molecular target: T5, Carnitine O-palmitoyltransferase 1, liver isoform (Homo sapiens, UniProt P50416); test: as §2
T5 sequence (P50416 whole entry): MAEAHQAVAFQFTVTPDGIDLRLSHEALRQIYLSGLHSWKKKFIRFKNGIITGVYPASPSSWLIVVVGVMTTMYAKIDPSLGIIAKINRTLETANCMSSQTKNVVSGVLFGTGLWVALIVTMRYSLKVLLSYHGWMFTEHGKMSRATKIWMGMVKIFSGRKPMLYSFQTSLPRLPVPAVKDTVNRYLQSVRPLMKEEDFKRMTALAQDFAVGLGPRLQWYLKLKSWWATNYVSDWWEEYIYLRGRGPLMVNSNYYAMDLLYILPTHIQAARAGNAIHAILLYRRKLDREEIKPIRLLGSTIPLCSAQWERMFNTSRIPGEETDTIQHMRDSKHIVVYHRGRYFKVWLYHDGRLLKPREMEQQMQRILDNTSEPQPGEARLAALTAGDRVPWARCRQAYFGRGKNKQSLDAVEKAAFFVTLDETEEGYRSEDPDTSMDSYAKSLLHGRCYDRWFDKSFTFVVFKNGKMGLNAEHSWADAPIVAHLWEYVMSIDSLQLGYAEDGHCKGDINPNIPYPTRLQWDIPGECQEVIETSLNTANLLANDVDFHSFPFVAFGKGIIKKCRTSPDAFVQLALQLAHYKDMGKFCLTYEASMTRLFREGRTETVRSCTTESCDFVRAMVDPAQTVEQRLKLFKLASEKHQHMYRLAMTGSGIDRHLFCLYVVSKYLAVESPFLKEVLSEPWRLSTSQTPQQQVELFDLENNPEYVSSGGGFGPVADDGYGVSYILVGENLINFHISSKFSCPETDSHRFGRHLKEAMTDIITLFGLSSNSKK

[8] = SUPPLEMENTARY: Lipophilicity (log D) Determination by high-throughput shake-flask; format: physicochemical; settings: octanol/water

Row | Structure (SMILES) | Papp [1] [×10⁻⁶ cm/s] | solubility kinetic [2] [µg/mL] | IC50 [3] [nM] | IC50 [4] [nM] | IC50 [5] [nM] | IC50 [6] [nM] | IC50 [7] [nM] | logD [8]
1 | CN1CCN(c2cc3c(cc2Cl)CN(C(=O)[C@H]2CCCCN2C(=O)COc2ccccc2)C3)CC1 | 3.16 | 242 (≈ 487 µM) | 1990 | 2670 | > 100000 | 66.6 | 87.8 | 2.38
2 | CCOc1ccc2c(c1)CN(C(=O)[C@H]1CCCCN1C(=O)COc1ccccc1)C2 | 5.52 | 30 (≈ 73.4 µM) | 468 | 539 | > 100000 | 232 | 161 | 3.23
3 | O=C([C@H]1CCCCN1C(=O)COc1ccccc1)N1Cc2ccc(C3CCOCC3)cc2C1 | 4.45 | 14 (≈ 31.2 µM) | 642 | 477 | > 100000 | 64.1 | 63.8 | 2.8
4 | O=C([C@H]1CCCCN1C(=O)COc1ccccc1)N1Cc2ccc(OCC3CC3)cc2C1 | 2.7 | 5 (≈ 11.5 µM) | 701 | 1120 | > 100000 | 263 | 259 | 2.97
5 | O=C([C@H]1CCCCN1C(=O)COc1ccccc1)N1Cc2ccc(C3CCOC3)cc2C1 (stereo not given in full) | 4.71 | 46 (≈ 106 µM) | 473 | 701 | > 100000 | 77.2 | 63.5 | 2.72
6 | COc1ccc(Cl)cc1CN1C(=O)OCc2ccc(C(=O)Nc3nc(CC(=O)O)cs3)cc21 | 1.7 | 50 (≈ 102 µM) | > 100000 | > 100000 | 21900 | 203 | 132 | 0.06

Continued, values first:

Row | Papp [1] [×10⁻⁶ cm/s] | solubility kinetic [2] [µg/mL] | IC50 [3] [nM] | IC50 [4] [nM] | IC50 [5] [nM] | IC50 [6] [nM] | IC50 [7] [nM] | logD [8] | Structure (SMILES)
7 | 5.91 | 36 (≈ 74.4 µM) | 388 | 496 | > 100000 | 121 | 145 | 3.24 | O=C([C@H]1CCCCN1C(=O)COc1ccccc1)N1Cc2cc(Cl)c(N3CCOCC3)cc2C1
8 | 7.36 | 70 (≈ 157 µM) | 29700 | 69700 | 83300 | 458 | 59.9 | 2.66 | O=C(COc1ccccc1)N1CCCC[C@@H]1c1noc(-c2cccc(-n3cc[nH]c3=O)c2)n1
9 | 4.27 | 204 (≈ 442 µM) | 19100 | 57300 | > 100000 | 1670 | 216 | 2.12 | O=C(c1nc([C@H]2CCCCN2C(=O)COc2ccccc2)no1)N1CCC(c2ccncc2)C1 (stereo not given in full)
10 | 9.41 | 94 (≈ 256 µM) | > 100000 | > 100000 | > 100000 | 555 | 156 | 2.16 | Cn1ccc(-c2nc([C@H]3CCCCN3C(=O)COc3ccccc3)no2)n1
11 | 5.94 | 22 (≈ 62.3 µM) | > 100000 | > 100000 | > 100000 | 225 | 221 | 2.22 | O=C(COc1ccccc1)N1CCCC[C@@H]1c1noc(-c2cc[nH]n2)n1
12 | 6.78 | 39 (≈ 106 µM) | > 100000 | > 100000 | > 100000 | 448 | 166 | 2.62 | Cc1cc(-c2nc([C@H]3CCCCN3C(=O)COc3ccccc3)no2)no1
13 | 6.42 | 55 (≈ 144 µM) | 16300 | > 100000 | > 100000 | 330 | 228 | 3.13 | Cc1cc(-c2nc([C@H]3CCCCN3C(=O)COc3ccccc3)no2)n(C)n1
14 | 6.09 | 52 (≈ 142 µM) | > 100000 | > 100000 | 62700 | 146 | 188 | 2.57 | Cc1cc(-c2nc([C@H]3CCCCN3C(=O)COc3ccccc3)no2)[nH]n1
15 | 9.63 | 41 (≈ 111 µM) | > 100000 | > 100000 | > 100000 | 144 | 116 | 2.6 | Cc1cc(-c2nc([C@H]3CCCCN3C(=O)COc3ccccc3)no2)on1
